ChEMBL document CHEMBL1128881, “The in vitro effects of three lysosomotropic detergents against three human tumor cell lines” (Bioorg Med Chem Lett, 1995)

Key:
[1] = Dissociation constant was measured in water; type: physicochemical
[2] = Tested for inhibition of DNA synthesis at a dose range of 1.9-2.4 ug/ml after 30 min; range of 8-10 uM; type: functional

Question: Which pKa ([1]; water, read-out: pKa) does the source give for `CCCCCCCCCCCCNC(=O)[C@@H](N)CO` here?
Answer: Its pKa is 7.5.

Question: With `CCCCCCCCCCCCNC(=O)[C@@H](N)COC` as the compound, how does the pKa [1] read?
Answer: The pKa was 5.9.

Question: And the IC50 [2]?
Answer: The IC50 was 10 µM.

Question: Which pKa ([1]; buffer) does the source give for `CCCCCCCCCCCCn1ccnc1` [listing 1 of 2 here] here?
Answer: Its pKa is 7.5.

Question: Which pKa ([1]; water, read-out: pKa) does the source give for `CCCCCCCCCCCCn1ccnc1` [listing 2 of 2 here] here?
Answer: The pKa was 6.3.

Question: Which pKa ([1]; buffer) does the source give for `CCCCCCCCCCCCNC(=O)[C@@H](N)CO.Cl` here?
Answer: The pKa was 5.8.

Question: With `Cn1ccnc1` [1-METHYLIMIDAZOLE] as the compound, how does the pKa ([1]; water, read-out: pKa) read?
Answer: The pKa was 7.
